Experiments:
Assay in all cases: relative viability (nuclei count vs DMSO), 5 days (fraction); higher = more cells survive
Bleomycin + Pictilisib = compound: CC1=C(N=C(N=C1N)[C@H](CC(=O)N)NC[C@@H](C(=O)N)N)C(=O)N[C@@H]([C@H](C2=CN=CN2)OC3C(C(C(C(O3)CO)O)O)OC4C(C(C(C(O4)CO)O)OC(=O)N)O)C(=O)N[C@H](C)[C@H]([C@H](C)C(=O)N[C@@H]([C@@H](C)O)C(=O)NCCC5=NC(=CS5)C6=NC(=CS6)C(=O)NCCC[S+](C)C)O [Bleomycin] + CS(=O)(=O)N1CCN(Cc2cc3nc(-c4cccc5[nH]ncc45)nc(N4CCOCC4)c3s2)CC1 [Pictilisib] (partner 1 µM); conditions: main component drawn
Summary of the method: (§1)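 Relative viability equals treated-well nuclei counts divided by vehicle-well nuclei counts. Counts came from 4× images of lung cancer cell lines grown in 1536-well plates for 5 days after pin-tool dosing on the day after seeding. Dosing used one drug alone or a fixed anchor-drug dose plus five library-drug doses (not always all listed) in √10 steps, and values are medians of duplicate plates.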

Bleomycin + Trametinib = compound: CC1=C(N=C(N=C1N)[C@H](CC(=O)N)NC[C@@H](C(=O)N)N)C(=O)N[C@@H]([C@H](C2=CN=CN2)OC3C(C(C(C(O3)CO)O)O)OC4C(C(C(C(O4)CO)O)OC(=O)N)O)C(=O)N[C@H](C)[C@H]([C@H](C)C(=O)N[C@@H]([C@@H](C)O)C(=O)NCCC5=NC(=CS5)C6=NC(=CS6)C(=O)NCCC[S+](C)C)O [Bleomycin] + CC(=O)Nc1cccc(-n2c(=O)n(C3CC3)c(=O)c3c(Nc4ccc(I)cc4F)n(C)c(=O)c(C)c32)c1 [Trametinib] (partner 0.02 µM); conditions: main component drawn
Summary of the method: as §1

Bleomycin + Lapatinib = compound: CC1=C(N=C(N=C1N)[C@H](CC(=O)N)NC[C@@H](C(=O)N)N)C(=O)N[C@@H]([C@H](C2=CN=CN2)OC3C(C(C(C(O3)CO)O)O)OC4C(C(C(C(O4)CO)O)OC(=O)N)O)C(=O)N[C@H](C)[C@H]([C@H](C)C(=O)N[C@@H]([C@@H](C)O)C(=O)NCCC5=NC(=CS5)C6=NC(=CS6)C(=O)NCCC[S+](C)C)O [Bleomycin] + CS(=O)(=O)CCNCc1ccc(-c2ccc3ncnc(Nc4ccc(OCc5cccc(F)c5)c(Cl)c4)c3c2)o1 [Lapatinib] (partner 2 µM); conditions: main component drawn
Summary of the method: as §1

Etoposide + Trametinib = compound: COc1cc([C@@H]2c3cc4c(cc3[C@@H](O[C@@H]3O[C@@H]5CO[C@@H](C)O[C@H]5[C@H](O)[C@H]3O)[C@H]3COC(=O)[C@H]23)OCO4)cc(OC)c1O [Etoposide] + CC(=O)Nc1cccc(-n2c(=O)n(C3CC3)c(=O)c3c(Nc4ccc(I)cc4F)n(C)c(=O)c(C)c32)c1 [Trametinib] (partner 0.02 µM)
Summary of the method: as §1

Cell Line: UMC-11
- relative viability (Bleomycin + Pictilisib; first compound 0.01 µM): 0.842
- relative viability (Bleomycin + Pictilisib; first compound 0.03162 µM): 0.661
- relative viability (Bleomycin + Pictilisib; first compound 0.1 µM): 0.827
- relative viability (Bleomycin + Pictilisib; first compound 0.3162 µM): 0.66
- relative viability (Bleomycin + Pictilisib; first compound 1 µM): 0.577
- relative viability (Bleomycin + Trametinib; first compound 0.01 µM): 0.653
- relative viability (Bleomycin + Trametinib; first compound 0.03162 µM): 0.652
- relative viability (Bleomycin + Trametinib; first compound 0.1 µM): 0.774
- relative viability (Bleomycin + Trametinib; first compound 0.3162 µM): 0.632
- relative viability (Bleomycin + Trametinib; first compound 1 µM): 0.345
- relative viability (Bleomycin + Lapatinib; first compound 0.01 µM): 0.879
- relative viability (Bleomycin + Lapatinib; first compound 0.03162 µM): 0.819
- relative viability (Bleomycin + Lapatinib; first compound 0.1 µM): 0.971
- relative viability (Bleomycin + Lapatinib; first compound 0.3162 µM): 0.737
- relative viability (Bleomycin + Lapatinib; first compound 1 µM): 0.503
- relative viability (Etoposide + Trametinib; first compound 0.01 µM): 0.711
- relative viability (Etoposide + Trametinib; first compound 0.03162 µM): 0.711
- relative viability (Etoposide + Trametinib; first compound 0.1 µM): 0.352
- relative viability (Etoposide + Trametinib; first compound 0.3162 µM): 0.258
- relative viability (Etoposide + Trametinib; first compound 1 µM): 0.292

— the supplement of paper PMC10307832
